Experimental data from PubChem BioAssay AID2060611 (Molecular Pharmacology Branch, DTP, NCI, 2025).

System: 628569-122-R-J1-PDC complex spheroid viability
Test: Anticancer human tumor 628569-122-R-J1-PDC patient-derived head and neck squamous carcinoma cell line growth inhibition [CLK]
Conditions: for IC50: curve of first compound; for viability, T/C: stronger effect = lower value
Method in brief: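 Multi-cell-type spheroids combined patient-derived tumor cells with HUVEC endothelial cells and human mesenchymal stem cells. Paired agents were dosed in half-log steps down from about clinical Cmax, or from 10 microM where Cmax was unknown.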

[1] = second compound 0.0316 µM, first compound 0.0316 µM
[2] = second compound 0.0316 µM, first compound 0.1 µM
[3] = second compound 0.1 µM, first compound 0.0316 µM
[4] = second compound 0.1 µM, first compound 0.1 µM
[5] = second compound 0.316 µM, first compound 0.0316 µM
[6] = second compound 0.316 µM, first compound 0.1 µM
[7] = second compound 1 µM, first compound 0.0316 µM
[8] = second compound 1 µM, first compound 0.1 µM
[9] = second compound 3.16 µM, first compound 0.0316 µM
[10] = second compound 3.16 µM, first compound 0.1 µM
[11] = second compound 10 µM, first compound 0.0316 µM
[12] = second compound 10 µM, first compound 0.1 µM
[13] = second compound 0.0316 µM, first compound 0.316 µM
[14] = second compound 0.0316 µM, first compound 1 µM
[15] = second compound 0.0316 µM, first compound 3.16 µM
[16] = second compound 0.0316 µM, first compound 10 µM
[17] = second compound 0.1 µM, first compound 0.316 µM
[18] = second compound 0.1 µM, first compound 1 µM
[19] = second compound 0.1 µM, first compound 3.16 µM
[20] = second compound 0.1 µM, first compound 10 µM
[21] = second compound 0.316 µM, first compound 0.316 µM
[22] = second compound 0.316 µM, first compound 1 µM
[23] = second compound 0.316 µM, first compound 3.16 µM
[24] = second compound 0.316 µM, first compound 10 µM
[25] = second compound 1 µM, first compound 0.316 µM
[26] = second compound 1 µM, first compound 1 µM
[27] = second compound 1 µM, first compound 3.16 µM
[28] = second compound 1 µM, first compound 10 µM
[29] = second compound 3.16 µM, first compound 0.316 µM
[30] = second compound 3.16 µM, first compound 1 µM
[31] = second compound 3.16 µM, first compound 3.16 µM
[32] = second compound 3.16 µM, first compound 10 µM
[33] = second compound 10 µM, first compound 0.316 µM
[34] = second compound 10 µM, first compound 1 µM
[35] = second compound 10 µM, first compound 3.16 µM
[36] = second compound 10 µM, first compound 10 µM
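Also: spheroids exposed to agents for seven days before readout.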
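For viability, T/C in this document: 100% = DMSO vehicle control viability.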

SMILES: Cn1ncnc1[C@H]1c2n[nH]c(=O)c3cc(F)cc(c23)N[C@@H]1c1ccc(F)cc1 + CN1CCN(c2cc(C(=O)Nc3cc4cc(-c5cnn(C)c5)ccc4cn3)ccn2)CC1
- IC50 (second compound 0.0316 µM): > 100 nM
- IC50 (second compound 0.1 µM): 69 nM
- IC50 (second compound 0.316 µM): < 0.316 nM
- IC50 (second compound 1 µM): < 0.316 nM
- IC50 (second compound 3.16 µM): < 0.316 nM
- IC50 (second compound 10 µM): < 0.316 nM
- viability, T/C (second compound 0.0316 µM, first compound 0.000316 µM): 91.6%
- viability, T/C (second compound 0.0316 µM, first compound 0.001 µM): 98.2%
- viability, T/C (second compound 0.0316 µM, first compound 0.00316 µM): 89.9%
- viability, T/C (second compound 0.0316 µM, first compound 0.01 µM): 92.5%
- viability, T/C [1]: 82.7%
- viability, T/C [2]: 58.4%
- viability, T/C (second compound 0.1 µM, first compound 0.000316 µM): 58.3%
- viability, T/C (second compound 0.1 µM, first compound 0.001 µM): 68.8%
- viability, T/C (second compound 0.1 µM, first compound 0.00316 µM): 69.9%
- viability, T/C (second compound 0.1 µM, first compound 0.01 µM): 62.5%
- viability, T/C [3]: 53.8%
- viability, T/C [4]: 47.5%
- viability, T/C (second compound 0.316 µM, first compound 0.000316 µM): 35.3%
- viability, T/C (second compound 0.316 µM, first compound 0.001 µM): 31.6%
- viability, T/C (second compound 0.316 µM, first compound 0.00316 µM): 33.2%
- viability, T/C (second compound 0.316 µM, first compound 0.01 µM): 34.2%
- viability, T/C [5]: 33%
- viability, T/C [6]: 21.4%
- viability, T/C (second compound 1 µM, first compound 0.000316 µM): 12.2%
- viability, T/C (second compound 1 µM, first compound 0.001 µM): 4.22%
- viability, T/C (second compound 1 µM, first compound 0.00316 µM): 4.14%
- viability, T/C (second compound 1 µM, first compound 0.01 µM): 4.53%
- viability, T/C [7]: 6.11%
- viability, T/C [8]: 5.95%
- viability, T/C (second compound 3.16 µM, first compound 0.000316 µM): 9.51%
- viability, T/C (second compound 3.16 µM, first compound 0.001 µM): 3.28%
- viability, T/C (second compound 3.16 µM, first compound 0.00316 µM): 6.67%
- viability, T/C (second compound 3.16 µM, first compound 0.01 µM): 8.93%
- viability, T/C [9]: 9.05%
- viability, T/C [10]: 5.6%
- viability, T/C (second compound 10 µM, first compound 0.000316 µM): 7.27%
- viability, T/C (second compound 10 µM, first compound 0.001 µM): 1.99%
- viability, T/C (second compound 10 µM, first compound 0.00316 µM): 2.02%
- viability, T/C (second compound 10 µM, first compound 0.01 µM): 9.25%
- viability, T/C [11]: 4.57%
- viability, T/C [12]: 0.98%

SMILES: Nc1ccn(C2OC(CO)C(O)C2(F)F)c(=O)n1 (stereo unspecified) + CN1CCN(c2cc(C(=O)Nc3cc4cc(-c5cnn(C)c5)ccc4cn3)ccn2)CC1
- IC50 (second compound 0.0316 µM): > 10000 nM
- IC50 (second compound 0.1 µM): > 10000 nM
- IC50 (second compound 0.316 µM): < 31.6 nM
- IC50 (second compound 1 µM): < 31.6 nM
- IC50 (second compound 3.16 µM): < 31.6 nM
- IC50 (second compound 10 µM): < 31.6 nM
- viability, T/C [1]: 71.5%
- viability, T/C [2]: 57.1%
- viability, T/C [13]: 55.4%
- viability, T/C [14]: 58.4%
- viability, T/C [15]: 59%
- viability, T/C [16]: 62.9%
- viability, T/C [3]: 58.3%
- viability, T/C [4]: 48.6%
- viability, T/C [17]: 52.9%
- viability, T/C [18]: 56.8%
- viability, T/C [19]: 51.9%
- viability, T/C [20]: 65.2%
- viability, T/C [5]: 28.5%
- viability, T/C [6]: 31.5%
- viability, T/C [21]: 23.9%
- viability, T/C [22]: 35.1%
- viability, T/C [23]: 36.1%
- viability, T/C [24]: 29.3%
- viability, T/C [7]: 5.39%
- viability, T/C [8]: 3.49%
- viability, T/C [25]: 4.39%
- viability, T/C [26]: 4.7%
- viability, T/C [27]: 3.75%
- viability, T/C [28]: 3.77%
- viability, T/C [9]: 8.67%
- viability, T/C [10]: 5.79%
- viability, T/C [29]: 7.19%
- viability, T/C [30]: 5%
- viability, T/C [31]: 7.97%
- viability, T/C [32]: 3.35%
- viability, T/C [11]: 4.52%
- viability, T/C [12]: 4.25%
- viability, T/C [33]: 3.92%
- viability, T/C [34]: 6.65%
- viability, T/C [35]: 2.05%
- viability, T/C [36]: 1.36%

SMILES: O=C(c1cc(Cc2n[nH]c(=O)c3ccccc23)ccc1F)N1CCN(C(=O)C2CC2)CC1 + CN1CCN(c2cc(C(=O)Nc3cc4cc(-c5cnn(C)c5)ccc4cn3)ccn2)CC1
- IC50 (second compound 0.0316 µM): 6760 nM
- IC50 (second compound 0.1 µM): 1210 nM
- IC50 (second compound 0.316 µM): < 31.6 nM
- IC50 (second compound 1 µM): < 31.6 nM
- IC50 (second compound 3.16 µM): < 31.6 nM
- IC50 (second compound 10 µM): < 31.6 nM
- viability, T/C [1]: 91.9%
- viability, T/C [2]: 89.5%
- viability, T/C [13]: 91.2%
- viability, T/C [14]: 83.3%
- viability, T/C [15]: 56.8%
- viability, T/C [16]: 46.5%
- viability, T/C [3]: 55.8%
- viability, T/C [4]: 56.6%
- viability, T/C [17]: 61.9%
- viability, T/C [18]: 49.8%
- viability, T/C [19]: 41.5%
- viability, T/C [20]: 33.7%
- viability, T/C [5]: 34.6%
- viability, T/C [6]: 33.6%
- viability, T/C [21]: 33.9%
- viability, T/C [22]: 27.7%
- viability, T/C [23]: 16.8%
- viability, T/C [24]: 14.2%
- viability, T/C [7]: 9.74%
- viability, T/C [8]: 5.97%
- viability, T/C [25]: 9.24%
- viability, T/C [26]: 5%
- viability, T/C [27]: 8.27%
- viability, T/C [28]: 8.76%
- viability, T/C [9]: 6.83%
- viability, T/C [10]: 7.39%
- viability, T/C [29]: 8.5%
- viability, T/C [30]: 5.51%
- viability, T/C [31]: 6.5%
- viability, T/C [32]: 8.04%
- viability, T/C [11]: 3.42%
- viability, T/C [12]: 3.07%
- viability, T/C [33]: 1.85%
- viability, T/C [34]: 3.59%
- viability, T/C [35]: 3.68%
- viability, T/C [36]: 2.67%
